The values below come from PMC12139501, “Acetyl-11-keto-β-boswellic acid alleviates hepatic metabolic dysfunction by inhibiting MGLL activity” (Journal of Lipid Research, 2025).

The target of assay [1] is T1, monoacylglycerol lipase (MGLL) (Mus musculus, UniProt O35678).
T1 sequence (O35678 1-303): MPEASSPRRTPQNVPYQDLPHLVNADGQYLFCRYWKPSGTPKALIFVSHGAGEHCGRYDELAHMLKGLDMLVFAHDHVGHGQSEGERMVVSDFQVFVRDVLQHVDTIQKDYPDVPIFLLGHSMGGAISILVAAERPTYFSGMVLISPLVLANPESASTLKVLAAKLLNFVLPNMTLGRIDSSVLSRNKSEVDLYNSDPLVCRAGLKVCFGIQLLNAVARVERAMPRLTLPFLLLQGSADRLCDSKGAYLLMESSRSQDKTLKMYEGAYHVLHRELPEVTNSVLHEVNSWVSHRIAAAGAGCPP
Put plainly: LC-MS 2-oleoylglycerol hydrolysis assay in hepatocyte lysate, […]. Further details: endogenous or adenovirus-overexpressed MGLL in primary hepatocyte homogenate. The format is cell-based.

Assay [2] has as its target T1, monoacylglycerol lipase (MGLL). Put plainly: ITC with purified MGLL; supported by pull-down and LC-MS activity assay in hepatocyte lysate. Further details: N-terminal 6×His fusion protein of the mouse MGLL domain. The format is binding.

SMILES strings stand for the structures.

As for `COC(=O)[C@]1(C)CC[C@]2(C)CC[C@]3(C)C4=CC=C5C(=CC(=O)C(O)=C5C)[C@]4(C)CC[C@@]3(C)[C@@H]2C1` [pristimerin], the “LC-MS 2-oleoylglycerol hydrolysis assay in hepatocyte lysate, 50 μM” value in assay [1] was “both AKBA and pristimerin significantly reduced MGLL activity in wild-type primary hepatocytes as well as in those overexpressing MGLL”.
By Kd is commonly meant the free concentration of one partner at which half of the binding sites on the other are occupied at equilibrium, for simple one-to-one binding. The compound `CC(=O)O[C@@H]1CC[C@@]2(C)[C@@H](CC[C@]3(C)[C@@H]2C(=O)C=C2[C@@H]4[C@@H](C)[C@H](C)CC[C@]4(C)CC[C@]23C)[C@@]1(C)C(=O)O` [AKBA] displayed a Kd in assay [2] of 40.6 µM.
